Experimental data published in patent publication US20240182460A1, “ALLOSTERIC CHROMENONE INHIBITORS OF PHOSPHOINOSITIDE 3-KINASE (PI3K) FOR THE TREATMENT OF DISEASE” (PETRA PHARMA CORPORATION, priority 2022, published 2024).

How the values were obtained:
[1] = molecular target: T1, PI3Kα E545K (Homo sapiens, UniProt P42336, E545K); assay: PI3Kα E545K mutant in vitro cell based assay, MCF-7 cells; settings: MCF-7 cell line, 0% FBS, 3 hours treatment
Summary of the method: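 MCF-7 cells (PI3Kα E545K) in serum-free MEM with 1 μg/mL insulin were treated 3 h with 10-point 1:3 dilutions in 0.3% DMSO. Lysates were read by SureFire AlphaLisa. IC50 was fitted by 4-parameter logistic to % inhibition relative to DMSO (max) and 1 μM GDC-0032 (min), duplicates averaged.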

[2] = molecular target: T2, PI3Kα H1047R (Homo sapiens, UniProt P42336, H1047R); assay: PI3Kα H1047R mutant in vitro cell based assay, MDA-MB-453 cells (AlphaLisa SureFire); settings: MDA-MB-453 cell line, 0% FBS, 3 hours treatment
T2 construct: The MDA-MB-453 (ATCC-HTB-131) cell line (PI3Kα H1047R); host or cells: MDA-MB-453
T2 sequence (P42336 whole entry H1047R): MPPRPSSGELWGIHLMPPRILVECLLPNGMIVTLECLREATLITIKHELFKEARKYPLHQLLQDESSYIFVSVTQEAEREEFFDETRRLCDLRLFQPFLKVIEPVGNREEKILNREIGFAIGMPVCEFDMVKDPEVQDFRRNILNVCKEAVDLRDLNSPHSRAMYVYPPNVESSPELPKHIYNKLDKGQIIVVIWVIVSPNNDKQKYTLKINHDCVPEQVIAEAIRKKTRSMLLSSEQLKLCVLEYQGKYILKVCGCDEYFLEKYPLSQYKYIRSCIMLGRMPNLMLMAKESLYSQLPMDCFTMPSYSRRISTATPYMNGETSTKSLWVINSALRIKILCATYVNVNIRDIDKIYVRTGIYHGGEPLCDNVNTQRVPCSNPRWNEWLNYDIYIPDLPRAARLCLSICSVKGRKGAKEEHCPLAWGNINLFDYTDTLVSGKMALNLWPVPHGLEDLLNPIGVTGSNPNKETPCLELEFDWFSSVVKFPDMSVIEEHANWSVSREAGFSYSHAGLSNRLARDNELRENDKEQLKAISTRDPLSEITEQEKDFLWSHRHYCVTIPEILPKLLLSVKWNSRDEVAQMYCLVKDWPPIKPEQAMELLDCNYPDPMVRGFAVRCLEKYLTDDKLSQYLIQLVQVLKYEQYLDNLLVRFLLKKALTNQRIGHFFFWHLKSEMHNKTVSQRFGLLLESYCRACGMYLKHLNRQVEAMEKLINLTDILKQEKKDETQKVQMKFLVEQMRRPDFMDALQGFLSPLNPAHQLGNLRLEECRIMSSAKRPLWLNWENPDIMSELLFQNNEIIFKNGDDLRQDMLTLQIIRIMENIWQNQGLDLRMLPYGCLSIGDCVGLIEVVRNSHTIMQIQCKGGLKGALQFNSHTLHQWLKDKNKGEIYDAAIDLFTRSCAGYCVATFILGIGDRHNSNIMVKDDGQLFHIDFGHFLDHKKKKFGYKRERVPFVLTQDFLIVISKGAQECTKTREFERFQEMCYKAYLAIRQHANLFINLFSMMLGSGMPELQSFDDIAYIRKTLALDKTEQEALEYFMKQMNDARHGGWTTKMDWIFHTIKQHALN
T2 sequence (P27986 whole entry partner): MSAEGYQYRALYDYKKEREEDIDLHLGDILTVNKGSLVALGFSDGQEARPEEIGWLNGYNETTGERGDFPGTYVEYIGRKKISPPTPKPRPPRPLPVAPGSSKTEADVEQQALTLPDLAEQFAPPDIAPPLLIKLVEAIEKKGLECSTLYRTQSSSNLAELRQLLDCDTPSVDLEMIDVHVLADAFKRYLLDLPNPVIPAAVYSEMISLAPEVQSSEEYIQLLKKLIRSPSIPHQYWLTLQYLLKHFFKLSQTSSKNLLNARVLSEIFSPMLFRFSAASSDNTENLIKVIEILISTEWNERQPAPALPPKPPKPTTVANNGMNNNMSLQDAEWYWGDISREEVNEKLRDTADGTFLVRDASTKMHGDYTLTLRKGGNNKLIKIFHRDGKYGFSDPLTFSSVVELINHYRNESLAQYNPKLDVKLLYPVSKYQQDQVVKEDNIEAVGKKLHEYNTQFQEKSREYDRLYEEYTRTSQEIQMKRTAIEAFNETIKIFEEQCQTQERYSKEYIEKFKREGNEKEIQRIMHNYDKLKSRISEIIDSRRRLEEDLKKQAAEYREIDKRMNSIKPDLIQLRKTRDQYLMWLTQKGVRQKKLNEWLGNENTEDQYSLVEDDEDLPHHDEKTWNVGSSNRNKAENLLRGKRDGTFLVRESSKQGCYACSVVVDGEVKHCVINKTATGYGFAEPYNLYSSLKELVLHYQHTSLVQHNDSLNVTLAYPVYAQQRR
Source text: PI3K-Alpha Kinase (PI3Kα) Activity: Wild-Type PI3Kα, H1047R Mutant PI3Kα, and E545K Mutant PI3Kα In Vitro Cell Based Assays and Determination of IC50 Values for Inhibitors
The MDA-MB-453 (ATCC-HTB-131) cell line (PI3Kα H1047R) and MCF-7 (ATCC-HTB-22) cell line (PI3Kα E545K), MDA-MB-361 (ATCC-HTB-27) cell line (PI3Kα E545K), and SKBR3 (ATCC-HTB-30) cell line (wild type PI3Kα) were obtained from the American Type Culture Collection (Manassas, VA). MDA-MB-453 cells were maintained in Dulbecco's Modified Eagle Media (DMEM, Gibco 12430) supplemented with 10% Fetal Bovine Serum, heat inactivated (FBS HI, Gibco 10082), 1× non-essential amino acids (NEAA, Gibco 11140), 1 mM sodium pyruvate (Gibco 11360) and 1× Anti-Anti (Gibco 15240). MCF-7 cells were maintained in Minimum Essential Media (MEM) (Gibco 11095) supplemented with 10% Fetal Bovine Serum, heat inactivated (FBS HI, Gibco 10082), 1× non-essential amino acids (NEAA, Gibco 11140), 1 mM sodium pyruvate (Gibco 11360), 1× Anti-Anti (Gibco 15240) and 10 μg/mL human insulin (Sigma I 9278). MDA-MB-361 cells were maintained in Dulbecco's Modified Eagle Media (DMEM, Gibco 12430) supplemented with 20% Fetal Bovine Serum, heat inactivated (FBS HI, Gibco 10082), 1× non-essential amino acids (NEAA, Gibco 11140), 1 mM sodium pyruvate (Gibco 11360) and 1× Anti-Anti (Gibco 15240). SKBR3 cells were maintained in McCoy's 5A (Gibco 16600) supplemented with 10% Fetal Bovine Serum, heat inactivated (FBS HI, Gibco 10082), and 1× Anti-Anti (Gibco 15240). Cultures were maintained in a humidified incubator at 37° C. under 5% CO2/95% air.
For compound testing in 0% FBS, MDA-MB-453, MCF-7 and SKBR3 cells were seeded at a density of 1.5×10^4, 1.0×10^4, and 1.0×10^4 cells, respectively, per well in white 384-well plates in 20 μl of Minimum Essential Media (MEM) assay media with 1×NEAA, 1 mM sodium pyruvate, and 1 μg/mL human insulin (Sigma 19278) (Assay Medium); while MDA-MB-361 cells were seeded at a density of 1.5×10^4 per well in white 384-well plates in 20 μl Assay Medium without insulin. After plating, cells were allowed to attach overnight. Compounds dissolved in 10 mM stock solutions in DMSO were serially diluted 1:3 in DMSO to generate a 10-point dilution series and plated using an acoustic liquid handler system (Echo 550 Series Liquid Handler, Labcyte). A 5× intermediate compound dilution plate in MEM with 1×NEAA and 1 mM sodium pyruvate (150 μM starting compound concentration in 1.5% DMSO) was then prepared. Five μl of the intermediate serially diluted compounds were added to the cell plate to final concentrations ranging from […] in 0.3% DMSO. 0.3% DMSO alone was used to establish the maximum (MAX) signal and GDC-0032 at a final concentration of 1 μM was used as a reference compound for the minimum (MIN) signal. After 3 hours treatment, the medium was removed, and the cells were lysed in 10 μL of 1× SureFire Lysis buffer with shaking for 10 minutes at room temperature. The Acceptor Mix (Reaction Buffer 1+Reaction Buffer 2+Activation Buffer+SureFire Ultra Acceptor Beads) was prepared by diluting Activation buffer 25-fold in combined Reaction Buffer 1 and Reaction Buffer 2.
The Acceptor beads were diluted 50-fold in the combined Reaction Buffers. Five μL of Acceptor Mix was added to each well, the plate was sealed and covered with foil and incubated for 1 hour at room temperature. The Donor Mix (dilution buffer+SureFire Ultra Donor Beads) was prepared by diluting Donor Beads 50-fold in dilution buffer. Five μL of the Donor Mix was added to each well and the plate sealed and covered with foil and incubated for 1-2 hours at room temperature in the dark. The plates were read on a Neo2 plate reader instrument from Biotek using standard AlphaLisa settings.
Compounds were tested in duplicate and the % inhibition at each compound concentration was used to generate two dose response curves. One IC50 was generated using average % inhibition at each compound concentration. […]

[3] = molecular target: T1, PI3Kα E545K; assay: PI3Kα E545K mutant in vitro cell based assay, MDA-MB-361 cells; set-up: MDA-MB-361 (ATCC-HTB-27) cell line (PI3Kα E545K); host or cells: MDA-MB-361; settings: MDA-MB-361 cell line, 0% FBS, no insulin, 3 hours treatment
Summary of the method: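 MDA-MB-361 cells (PI3Kα E545K) seeded in serum-free MEM assay medium without insulin, attached overnight, then treated 3 h with compound (10-point 1:3 series, 0.3% DMSO). AlphaLISA SureFire readout of lysates. IC50 by 4-parameter fit, normalized to DMSO (max) and 1 μM GDC-0032 (min).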

[4] = Metabolic stability and intrinsic clearance in human liver microsomes (MICS); assay type: in vitro ADME; settings: human, microsomes, pH 7.4
Summary of the method: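 Test compound (1 μM final) incubated at 37° C with liver microsomes (0.5 mg/mL protein) in 100 mM phosphate buffer pH 7.4, with 1 mM NADPH or without cofactor; sampled at 0.5–60 min, quenched with cold acetonitrile. Parent remaining quantified by LC-MS/MS; t1/2 from ln-% remaining slope converted to CLint (μL/min/mg protein).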

T1 sequence (P42336 whole entry E545K): as the sequence (P42336 whole entry H1047R) above, with E545K, R1047H counted along it
T1 sequence (P27986 whole entry partner): as the sequence (P27986 whole entry partner) above

IC50 [1] [nM] | IC50 [2] [nM] | IC50 [3] [nM] | microsomal CLint at 1 μM [4] [µL/min/mg] | Structure (SMILES)
< 500 | < 100 |  |  | Cc1cc([C@@H](C)Oc2ccc(Cl)nc2C)c2oc(-c3ccccc3)c(C)c(=O)c2c1 [Example 1, 8-[(1R)-1-[(6-Chloro-2-methyl-3-pyridyl)oxy]ethyl]-3,6-dimethyl-2-phenyl-chromen-4-one]
< 500 | < 100 |  |  | Cc1cc(C(C)Oc2ccc(Cl)nc2C)c2oc(-c3cccnc3)c(C)c(=O)c2c1 (single isomer, unassigned; isomer 2) [Example 10, 8-[1-[(6-Chloro-2-methyl-3-pyridyl)oxy]ethyl]-3,6-dimethyl-2-(3-pyridyl)chromen-4-one, Isomer 2]
 | < 100 | < 500 |  | Cc1cc([C@@H](C)Oc2ccc(Cl)nc2S(N)(=O)=O)c2oc(-c3cnn4c3OCC4)c(C)c(=O)c2c1 [Example 85C, 6-Chloro-3-[(1R)-1-[2-(2,3-dihydropyrazolo[5,1-b]oxazol-7-yl)-3,6-dimethyl-4-oxo-chromen-8-yl]ethoxy]pyridine-2-sulfonamide]
< 500 | < 100 |  |  | Cc1cc([C@@H](C)Oc2ccc(Cl)nc2C(N)=O)c2oc(-c3cc(C)c4nn(C)cc4c3)c(C)c(=O)c2c1 [Example 45C, 6-Chloro-3-[(1R)-1-[2-(2,7-dimethylindazol-5-yl)-3,6-dimethyl-4-oxo-chromen-8-yl]ethoxy]pyridine-2-carboxamide]
 | < 100 | < 500 |  | Cc1cc([C@@H](C)Oc2ccc(Cl)nc2C(N)=O)c2oc(-c3cnc(C)s3)c(C)c(=O)c2c1 [Example 63C, 6-Chloro-3-[(1R)-1-[3,6-dimethyl-2-(2-methylthiazol-5-yl)-4-oxo-chromen-8-yl]ethoxy]pyridine-2-carboxamide]
 | < 100 | < 500 |  | Cc1cc([C@@H](C)Oc2ccc(Cl)nc2C(N)=O)c2oc(-c3ccc4c(cnn4C)c3)c(C)c(=O)c2c1 [Example 40C, 6-Chloro-3-[(1R)-1-[3,6-dimethyl-2-(1-methylindazol-5-yl)-4-oxo-chromen-8-yl]ethoxy]pyridine-2-carboxamide]
 | < 100 | < 500 |  | Cc1cc([C@@H](C)Oc2ccc(Cl)nc2C(N)=O)c2oc(-c3ccc4ncsc4c3)c(C)c(=O)c2c1 [Example 12B, 3-[(1R)-1-[2-(1,3-Benzothiazol-6-yl)-3,6-dimethyl-4-oxo-chromen-8-yl]ethoxy]-6-chloro-pyridine-2-carboxamide]
 | < 100 | < 500 |  | CONC(=O)c1c(O[C@H](C)c2cc(C)cc3c(=O)c(C)c(-c4ccc5nn(C)cc5c4)oc23)ccc(F)c1F [Example 37A, 6-[(1R)-1-[3,6-Dimethyl-2-(2-methylindazol-5-yl)-4-oxo-chromen-8-yl]ethoxy]-2,3-difluoro-N-methoxy-benzamide]
 | < 100 |  | < 50 | Cc1cc([C@@H](C)Oc2ccc(Cl)nc2-c2noc(=O)[nH]2)c2oc(-c3cnc4c(c3)OCO4)c(C)c(=O)c2c1 [Example 39A, 3-[6-Chloro-3-[(1R)-1-[2-([1,3]dioxolo[4,5-b]pyridin-6-yl)-3,6-dimethyl-4-oxo-chromen-8-yl]ethoxy]-2-pyridyl]-4H-1,2,4-oxadiazol-5-one]
 | < 100 | < 500 |  | CONC(=O)c1nc(Cl)ccc1O[C@H](C)c1cc(C)cc2c(=O)c(C)c(-c3ccc4nc(C)sc4c3)oc12 [Example 69C, 6-Chloro-3-[(1R)-1-[3,6-dimethyl-2-(2-methyl-1,3-benzothiazol-6-yl)-4-oxo-chromen-8-yl]ethoxy]-N-methoxy-pyridine-2-carboxamide]
< 500 | < 100 |  |  | Cc1cc([C@@H](C)Oc2cccnc2S(N)(=O)=O)c2oc(-c3ccccc3)c(C)c(=O)c2c1 [Example 94C, 3-[(1R)-1-(3,6-Dimethyl-4-oxo-2-phenyl-chromen-8-yl)ethoxy]pyridine-2-sulfonamide]
 | < 100 |  | < 50 | Cc1cc([C@@H](C)Oc2ccc(Cl)nc2S(N)(=O)=O)c2oc(-c3cccnc3)c(C)c(=O)c2c1 [Example 42A, 6-Chloro-3-[(1R)-1-[3,6-dimethyl-4-oxo-2-(3-pyridyl)chromen-8-yl]ethoxy]pyridine-2-sulfonamide]
